Experimental data from US8921372B2, “Inhibitors of hepatitis C virus” (Theravance Biopharma R&D IP, LLC, priority 2010, dated 2014).
Like-named read-outs stand apart in the source and are kept apart here.

Key:
[1] = test system: HCV genotype 1a replicon cell line (APC89; Huh7.5 cell background); test: HCV Genotype 1a Replicon Assay (NS3-specific protease activity readout); type: cell-based; details: Hepatitis C virus
Outline: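 EC50 values came from a 4-parameter robust fit of fluorescence (ex 340, em 509 nm) produced by NS3-specific protease in lysates, assayed with 15 μM FRET substrate for 20 min at 37° C, after 48 or 72 hours of compound exposure (0.5% DMSO) of Huh7.5-derived APC89 genotype 1a replicon cells.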

[2] = test system: HCV genotype 1b replicon cell line (APC144; Huh7 cell background); test: HCV Genotype 1b Replicon Assay (Renilla luciferase readout); type: cell-based; details: Hepatitis C virus, Huh-7; read-out: Genotype 1b (pEC50 class, HCV genotype 1b replicon assay) (converted)
Outline: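 Reported as pEC50 derived from a 4-parameter fit of Renilla luciferase activity against concentration. Replicon cells (APC144, Huh7 background) were exposed to compound for 48 h in G418-free medium with final 0.5% DMSO, after seeding at 10,000 cells/well and 4 h adherence.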

[3] = 72 hour incubation, read-out: Genotype 1a (pEC50 class, HCV genotype 1a replicon assay) (converted)
[4] = compounds incubated for 48 hours, read-out: Genotype 1a (pEC50 class, HCV genotype 1a replicon assay), * results (converted)

COC(=O)N[C@H](C(=O)N1CCC[C@H]1c1nc(-c2ccc(-c3ccc(NC(=O)c4ccc(N5C[C@H](C)N(C(=O)C6CC6)C[C@H]5C)nc4)cc3OC(F)(F)F)cc2)c[nH]1)C(C)C [Example 30]
EC50 [1, 3]: < 0.1 nM | EC50 [2]: < 0.1 nM

COC(=O)N[C@H](C(=O)N1CCC[C@H]1c1nc(-c2ccc(-c3cc(Cl)c(NC(=O)c4ccc(N5C[C@H](C)N(C(=O)c6c[nH]cn6)C[C@H]5C)nc4)cc3OC(F)(F)F)cc2)c[nH]1)C(C)C [Example 28-39]
EC50 [1, 3]: < 0.1 nM | EC50 [2]: < 0.1 nM

COC(=O)N[C@H](C(=O)N1CCC[C@H]1c1nc(-c2ccc(-c3ccc(NC(=O)c4ccc(N5CCN(C(=O)C6CC6)C[C@H]5C)nc4)cc3OC(F)(F)F)cc2)c[nH]1)C(C)C [Example 28]
EC50 [1, 3]: 0.1 to 1 nM | EC50 [2]: < 0.1 nM

COC(=O)N[C@H](C(=O)N1CCC[C@H]1c1nc(-c2ccc(-c3ccc(NC(=O)c4ccc(N5CCN(C(=O)c6c[nH]cn6)C[C@H]5C)nc4)cc3C)cc2)c[nH]1)C(C)C [Example 19]
EC50 [1, 3]: 0.1 to 1 nM | EC50 [2]: < 0.1 nM

COC(=O)N[C@H](C(=O)N1CCC[C@H]1c1nc(-c2ccc(-c3ccc(C(=O)Nc4ccc(N5CCN(C(=O)C6CC6)CC5)cc4)cc3)cc2)c[nH]1)C(C)C [Example 7, {(S)-1-[(S)-2-(4-{4′-[4-(4-cyclopropanecarbonyl-piperazin-1-yl)-phenylcarbamoyl]-biphenyl-4-yl}-1H-imidazol-2-yl)-pyrrolidine-1-carbonyl]-2-methyl-propyl}-carbamic acid methyl ester]
EC50 [1, 4]: 1 to 10 nM | EC50 [2]: < 0.1 nM

CNC(=O)N1CCN(c2ccc(C(=O)Nc3ccc(-c4ccc(-c5c[nH]c([C@@H]6CCCN6C(=O)[C@@H](NC(=O)OC)C(C)C)n5)cc4)c(C)c3)cn2)[C@H](C)C1 [Example 18]
EC50 [1, 3]: 0.1 to 1 nM | EC50 [2]: < 0.1 nM

COC(=O)N[C@H](C(=O)N1CCC[C@H]1c1nc(-c2ccc(-c3ccc(NC(=O)c4ccc(N5CCN(C(=O)C6CC6)CC5)cc4)cc3)cc2)c[nH]1)C(C)C [Example 1, {(S)-1-[(S)-2-(4-{4′-[4-(4-cyclopropanecarbonyl-piperazin-1-yl)-benzoylamino]-biphenyl-4-yl}-1H-imidazol-2-yl)-pyrrolidine-1-carbonyl]-2-methyl-propyl}-carbamic acid methyl ester]
EC50 [1, 3]: 1 to 10 nM | EC50 [2]: < 0.1 nM

COC(=O)N[C@H](C(=O)N1CCC[C@H]1c1nc(-c2ccc(-c3cc(F)c(NC(=O)c4ccc(N5C[C@H](C)N(C(=O)c6c[nH]cn6)C[C@H]5C)nc4)cc3OC(F)(F)F)cc2)c[nH]1)C(C)C [Example 59]
EC50 [1, 3]: < 0.1 nM | EC50 [2]: < 0.1 nM

COC(=O)N[C@H](C(=O)N1CCC[C@H]1c1nc(-c2ccc(-c3cc(Cl)c(NC(=O)c4ccc(N5C[C@H](C)N(C(=O)c6c[nH]cn6)C[C@H]5C)nc4)cc3C(F)(F)F)cc2)c[nH]1)C(C)C [Example 65]
EC50 [1, 3]: < 0.1 nM | EC50 [2]: < 0.1 nM

COC(=O)N[C@H](C(=O)N1CCC[C@H]1c1nc(-c2ccc(-c3cc(F)c(NC(=O)c4ccc(N5CCN(C(=O)[C@]6(C)CCCN6C(=O)CN(C)C)C[C@H]5C)nc4)cc3OC(F)(F)F)cc2)c[nH]1)C(C)C [Example 27-50]
EC50 [1, 3]: < 0.1 nM | EC50 [2]: < 0.1 nM

CNC(=O)N1CCC[C@@]1(C)C(=O)N1CCN(c2ccc(C(=O)Nc3cc(OC(F)(F)F)c(-c4ccc(-c5c[nH]c([C@@H]6CCCN6C(=O)[C@@H](NC(=O)OC)C(C)C)n5)cc4)cc3F)cn2)[C@H](C)C1 [Example 27-47]
EC50 [1, 3]: < 0.1 nM | EC50 [2]: < 0.1 nM

COC(=O)N[C@H](C(=O)N1CCC[C@H]1c1nc(-c2ccc(-c3cc(F)c(NC(=O)c4ccc(N5CCN(C(=O)[C@]6(C)CCCN6C(=O)[C@@H](N)C(C)C)C[C@H]5C)nc4)cc3OC(F)(F)F)cc2)c[nH]1)C(C)C [Example 27-44]
EC50 [1, 3]: < 0.1 nM | EC50 [2]: < 0.1 nM

COC(=O)N[C@H](C(=O)N1CCC[C@H]1c1nc(-c2ccc(-c3ccc(NC(=O)c4ccc(N5CCN(C(=O)c6c[nH]cn6)C[C@H]5C)nc4)cc3C(F)(F)F)cc2)c[nH]1)C(C)C [Example 37]
EC50 [1, 3]: 0.1 to 1 nM | EC50 [2]: < 0.1 nM

COC(=O)N[C@H](C(=O)N1CCC[C@H]1c1nc(-c2ccc(-c3ccc(NC(=O)c4ccc(N5CCN(C(=O)c6c[nH]cn6)C[C@H]5C)nc4)cc3F)cc2)c[nH]1)C(C)C [Example 48]
EC50 [1, 3]: 0.1 to 1 nM | EC50 [2]: < 0.1 nM

COC(=O)N[C@H](C(=O)N1CCC[C@H]1c1nc(-c2ccc(-c3ccc(NC(=O)c4ccc(N5CCN(C(=O)[C@H]6CC6(C)C)C[C@H]5C)nc4)cc3F)c(F)c2)c[nH]1)C(C)C [Example 50, [(S)-1-((S)-2-{4-[4′-({6-[(R)-4-((S)-2,2-dimethyl-cyclopropanecarbonyl)-2-methyl-piperazin-1-yl]-pyridine-3-carbonyl}-amino)-2,2′-difluoro-biphenyl-4-yl]-1H-imidazol-2-yl}-pyrrolidine-1-carbonyl)-2-methyl-propyl]-carbamicacid methyl ester]
EC50 [1, 3]: < 0.1 nM | EC50 [2]: < 0.1 nM

COC(=O)N[C@H](C(=O)N1CCC[C@H]1c1nc(-c2ccc(-c3cc(F)c(NC(=O)c4ccc(N5CCN(C(=O)CNC(C)=O)C[C@H]5C)nc4)cc3OC(F)(F)F)cc2)c[nH]1)C(C)C [Example 27-37]
EC50 [1, 3]: < 0.1 nM | EC50 [2]: < 0.1 nM

COC(=O)N[C@H](C(=O)N1CCC[C@H]1c1nc(-c2ccc(-c3ccc(NC(=O)c4ccc(N5CCN(C(=O)C6CC6)C[C@H]5C)nc4)cc3C(F)(F)F)cc2)c[nH]1)C(C)C [Example 35]
EC50 [1, 3]: 0.1 to 1 nM | EC50 [2]: < 0.1 nM

COC(=O)N[C@H](C(=O)N1CCC[C@H]1c1nc(-c2ccc(-c3ccc(NC(=O)c4ccc(N5CCN(C(=O)[C@H]6CC6(C)C)C[C@@H]5C)nc4)cc3)cc2)c[nH]1)C(C)C [Example 13, [(S)-1-((S)-2-{4-[4′-({6-[(S)-4-((S)-2,2-Dimethyl-cyclopropane-carbonyl)-2-methyl-piperazin-1-yl]-pyridine-3-carbonyl}-amino)-biphenyl-4-yl]-1H-imidazol-2-yl}-pyrrolidine-1-carbonyl)-2-methyl-propyl]-carbamic acid methyl ester]
EC50 [1, 3]: < 0.1 nM | EC50 [2]: < 0.1 nM

COC(=O)N[C@H](C(=O)N1CCC[C@H]1c1nc(-c2ccc(-c3cc(F)c(NC(=O)c4ccc(N5CCN(C(=O)[C@]6(C)CCCN6C(=O)OC)C[C@H]5C)nc4)cc3OC(F)(F)F)cc2)c[nH]1)C(C)C [Example 27-42]
EC50 [1, 3]: < 0.1 nM | EC50 [2]: < 0.1 nM

COC(=O)N[C@H](C(=O)N1CCC[C@H]1c1nc(-c2ccc(-c3ccc(NC(=O)c4ccc(N5CCN(C(=O)[C@H]6CC6(C)C)C[C@H]5C)nc4)cc3F)cc2)c[nH]1)C(C)C [Example 45, [(S)-1-((S)-2-{5-[4′-({6-[(R)-4-((S)-2,2-Dimethyl-cyclopropanecarbonyl)-2-methyl-piperazin-1-yl]-pyridine-3-carbonyl}-amino)-2′-fluoro-biphenyl-4-yl]-1H-imidazol-2-yl}-pyrrolidine-1-carbonyl)-2-methyl-propyl]-carbamic acid methyl ester]
EC50 [1, 3]: < 0.1 nM | EC50 [2]: < 0.1 nM

CNC(=O)N1C[C@@H](C)N(c2ccc(C(=O)Nc3cc(OC(F)(F)F)c(-c4ccc(-c5c[nH]c([C@@H]6CCCN6C(=O)[C@@H](NC(=O)OC)C(C)C)n5)cc4)cc3F)cn2)C[C@@H]1C [Example 58]
EC50 [1, 3]: < 0.1 nM | EC50 [2]: < 0.1 nM

CNC(=O)N1CCN(c2ccc(C(=O)Nc3ccc(-c4ccc(-c5nc([C@@H]6CCCN6C(=O)[C@@H](NC(=O)OC)C(C)C)[nH]c5Cl)cc4)cc3)cc2)CC1 [Example 11, {(S)-1-[(S)-2-(5-Chloro-4-{4′-[4-(4-methylcarbamoyl-piperazin-1-yl)-benzoylamino]-biphenyl-4-yl}-1H-imidazol-2-yl)-pyrrolidine-1-carbonyl]-2-methyl-propyl}-carbamic acid methyl ester]
EC50 [1, 4]: 0.1 to 1 nM | EC50 [2]: < 0.1 nM

CNC(=O)N1C[C@@H](C)N(c2ccc(C(=O)Nc3cc(C(F)(F)F)c(-c4ccc(-c5c[nH]c([C@@H]6CCCN6C(=O)[C@@H](NC(=O)OC)C(C)C)n5)cc4)cc3Cl)cn2)C[C@@H]1C [Example 64]
EC50 [1, 3]: < 0.1 nM | EC50 [2]: < 0.1 nM

CNC(=O)N1CCN(c2ccc(C(=O)Nc3cc(OC(F)(F)F)c(-c4ccc(-c5c[nH]c([C@@H]6CCCN6C(=O)[C@@H](NC(=O)OC)C(C)C)n5)cc4)cc3F)cn2)[C@H](C)C1 [Example 53, ((S)-1-{(S)-2-[4-(5′-Fluoro-4′-{[6-OR)-2-methyl-4-methylcarbamoyl-piperazin-1-yl)-pyridine-3-carbonyl]-amino}-2′-trifluoromethoxy-biphenyl-4-yl)-1H-imidazol-2-yl]-pyrrolidine-1-carbonyl}-2-methyl-propyl)-carbamic acid methyl ester]
EC50 [1, 3]: < 0.1 nM | EC50 [2]: < 0.1 nM

COC(=O)N[C@H](C(=O)N1CCC[C@H]1c1nc(-c2ccc(-c3c(F)cc(NC(=O)c4ccc(N5CCN(C(=O)[C@H]6CC6(C)C)C[C@H]5C)nc4)cc3F)cc2)c[nH]1)C(C)C [Example 41, [(S)-1-((S)-2-{5-[4′-({6-[(R)-4-((S)-2,2-Dimethyl-cyclopropanecarbonyl)-2-methyl-piperazin-1-yl]-pyridine-3-carbonyl}-amino)-2′,6′-difluoro-biphenyl-4-yl]-1H-imidazol-2-yl}-pyrrolidine-1-carbonyl)-2-methyl-propyl]-carbamic acid methyl ester]
EC50 [1, 3]: < 0.1 nM | EC50 [2]: < 0.1 nM

COC(=O)N[C@H](C(=O)N1CCC[C@H]1c1nc(-c2ccc(-c3cc(Cl)c(NC(=O)c4ccc(N5CCN(C(=O)[C@]6(C)CCCN6C(=O)[C@@H](NC(=O)OC)C(C)C)C[C@H]5C)nc4)cc3C(F)(F)F)cc2)c[nH]1)C(C)C [Example 62]
EC50 [1, 3]: < 0.1 nM | EC50 [2]: < 0.1 nM
